Measured values from PubChem BioAssay AID652028 (The Scripps Research Institute Molecular Screening Center, 2013).
Active and inactive are the calls of the source.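 Rule for the calls: active = fold change under 0.5 at 10 µM in a cell reporter of NFkB inflammatory signaling; inactive = the rest.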

Test system: HEK NFkB luciferase reporter, IL-6 stimulated, luminescence
Test: blockade of IL-6-induced NFkB reporter activity – HEK cells, luminescence, IL-6 stimulus, powder samples, counter-screen for STAT5 inhibitor project, late-stage follow-up (AID 652028)
Conditions: at 10 µM; active compounds read low

| Compound | fold change |
| --- | --- |
| O=C(C[n+]1ccc2ccccc2c1)c1ccc2ccccc2c1 | 3.27 (inactive) |
| O=C(C[n+]1ccc2ccccc2c1)Nc1ccccc1 | 0.947 (inactive) |
| CN1/C(=C\C(=O)CN2CCc3ccccc3C2)C(C)(C)c2ccccc21 | 0.879 (inactive) |
| Cc1cc[n+](CC(=O)/C=C2\N(C)c3ccccc3C2(C)C)c(C)c1 | 0.848 (inactive) |
| CCOC(=O)C1CCCN(CC(=O)/C=C2/N(C)c3ccccc3C2(C)C)C1 (stereo unspecified) | 0.99 (inactive) |
| O=C(C[n+]1ccc2ccccc2c1)c1cc2ccccc2oc1=O | 0.218 |
| CN1/C(=C\C(=O)C[n+]2ccccc2)C(C)(C)c2ccccc21 | 0.819 (inactive) |
| CN1/C(=C\C(=O)Cn2nnc(-c3ccccc3)n2)C(C)(C)c2ccccc21 | 0.871 (inactive) |
| CN1/C(=C\C(=O)CN2C(=O)C3CC=CCC3C2=O)C(C)(C)c2ccccc21 (stereo unspecified) | 0.828 (inactive) |
| CC(C)(C)C(=O)C[n+]1ccc2ccccc2c1 | 0.915 (inactive) |
| O=C(C[n+]1ccc2ccccc2c1)c1ccccc1 | 0.911 (inactive) |
